From patent US9708330B2, “2,3-dihydroimidazol[1,2-C]pyrimidin-5(1-H)-one based ipoprotein-associated phospholipase A2 (Lp-PLA2) inhibitors” (GlaxoSmithKline Intellectual Property Development Limited, priority 2013, dated 2017)
Blank lines part the entries; values can stand above or below the compound they belong to.

Legend:
[1] = test system: splenic macrophages and CNS infiltrating macrophages; assay: Ex vivo analysis of M1 and M2 markers in macrophages of EAE rats by realtime PCR; set-up: species or system rat; conditions: macrophages of compound treated EAE rats, day 13 post MBP-immunization
Description: Ex vivo analysis of proinflammatory (M1) and anti-inflammatory (M2) markers in control and compound treated EAE rats. Splenic macrophages were harvested at day 13 post MBP-immunization and assayed for expression of a variety of markers by realtime PCR. CNS infiltrating cells were harvested and macrophages were analyzed for expression of M1 and M2 markers by realtime PCR.

[2] = test system: rat EAE model; assay: Rat experimental autoimmune encephalomyelitis (EAE) model, preventive treatment; format: in vivo
Description: A further study was carried out to study the impact of Lp-PLA2 inhibitors on modulating M1/M2 imbalance. In this study, rats were induced to develop experimental autoimmune encephalomyelitis (EAE) by immunization with myelin basic protein (MBP) antigen and treated with a known Lp-PLA2 inhibitor: 5-((9-Methoxy-4-oxo-6,7-dihydro-4H-pyrimido[6,1-a]isoquinolin-2-yl)oxy)-2-(3-(trifluoromethyl)phenoxy)benzonitrile (See PCT application no. PCT/CN2011/001597). In this preventive treatment model, the compound was administered at day 0 (day of immunization) and continued to administer until day 22. The study lasted for 25 days. Rats were subsequently monitored for symptoms of EAE. Rats were immunized with MBP to develop EAE and symptoms were monitored daily. Plasma Lp-PLA2 activity, OxLDL, and LysoPC concentration were determined at different time points through the course of EAE.

[3] = target: T1, Lp-PLA2 in human plasma (Homo sapiens, UniProt Q13093); assay: Lp-PLA2 human plasma assay, Thio-PAF assay (3a); format: biochemical; conditions: pooled human plasma, Examples 1-137, read-out: pIC50 in the Lp-PLA2 human plasma assay (converted)
T1 construct: from tissue; host or cells: pooled human plasma
T1 sequence (Q13093 22-441): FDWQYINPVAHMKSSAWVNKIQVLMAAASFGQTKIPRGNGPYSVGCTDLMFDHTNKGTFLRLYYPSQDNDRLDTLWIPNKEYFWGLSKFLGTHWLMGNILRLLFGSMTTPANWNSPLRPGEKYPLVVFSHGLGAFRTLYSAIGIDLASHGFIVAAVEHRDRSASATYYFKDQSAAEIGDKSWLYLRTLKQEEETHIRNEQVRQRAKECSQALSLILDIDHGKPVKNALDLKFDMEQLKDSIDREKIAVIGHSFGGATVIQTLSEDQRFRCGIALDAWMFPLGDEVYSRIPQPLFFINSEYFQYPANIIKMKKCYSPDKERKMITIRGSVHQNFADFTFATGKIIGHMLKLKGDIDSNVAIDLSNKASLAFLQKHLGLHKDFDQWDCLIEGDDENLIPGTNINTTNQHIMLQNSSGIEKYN
Description: The human plasma assay utilizes a thioester analog of PAF (phosphatidylcholine), where hydrolysis yields to the formation of a phospholipid containing a free thiol group. The amount of thiol is quantitated continuously by reacting with CPM (7-diethylamino-3-(4′-maleimidylphenyl)-4-methylcoumarin), a maleimide which increases in fluoresence after Michael addition of thiols. This assay may detect the activity of Lp-PLA2 in human plasma, as determined by specific inhibition by Lp-PLA2 inhibitors.
The thio-PAF assay was run as a quenched 15 μL assay. Compounds source plate was prepared by making 1:3 (by volume) serial dilution of the compounds into pure DMSO on 384-well microplate. 0.01 μL of compounds on compound source plate were transferred to 384 well Greiner 784076 (black) low-volume plates by ECHO liquid dispenser. 8 μL pooled human plasma, which was previously aliquoted and frozen, was added. Plates were centrifuged for 10 sec at 500 rpm. After 30 minutes preincubation, 2 μL of substrate solution comprising 2.5 mM 2-thio-PAF [from ethanol stock], 32 μM CPM [from a DMSO stock] and 3.2 mM NEM (N-ethylmaleimide) [made fresh daily in DMSO] in assay buffer of 50 mM HEPES, pH 7.4, 150 mM NaCl, 1 mM CHAPS was added to 384 well Greiner 784076 (black) low-volume plates by BRAVO liquid handling station. […] Plates were read at ex: 380 /em: 485 using Envision microplate reader. […]

[4] = target: T2, recombinant human Lp-PLA2 (Homo sapiens, UniProt Q13093); assay: Recombinant human Lp-PLA2 assay (rhLp-PLA2), PED6 assay; format: biochemical; conditions: Examples 1-137, read-out: rhLp-PLA2 (pIC50) (converted)
T2 sequence (Q13093 22-441): T1 sequence (Q13093 22-441)
Description: N-((6-(2,4-dinitrophenyl)amino)-hexanoyl)-2-(4,4-difluoro-5,7-dimethyl -4-bora-3a,4a-diaza-s-indacene-3-pentanoyl)-1-hexadecanoyl-sn-glycero-3-phosphoethanolamine, triethylammonium salt (PED6) is a commercially available fluorescently-labeled phospholipid, which is commercially available from Invitrogene and Molecular Probes. There is a quenching para-nitro phenyl (PNP) group in the sn3 position and a Bodipy fluorescein (FL) group in the sn2 position. Upon cleavage with Lp-PLA2, the Bodipy FL group is liberated and then may result in an increase in fluorescence. Inhibitors of Lp-PLA2 therefore prevent this cleavage and no fluorescent increase is observed.
The PED6 assay was run as an unquenched 10 μL assay. The source plate containing the compounds to be tested was prepared by making 1:3 (by volume) serial dilution of the compounds within DMSO on 384-well microplate. Then, 0.01 μL of the compounds on compound source plate were transferred into 384 well Greiner 784076 (black) plates using ECHO liquid dispenser. […] The plates were read for fluorescence intensity at ex: 480/em: 540 using ViewLux microplate imager for Envision spectrofluroimeters pIC50 data, curve and QC analysis was conducted by using XL fit module in Excel.

[5] = target: T2, recombinant human Lp-PLA2; assay: Recombinant human Lp-PLA2 assay, hrThioPAF assay; format: biochemical; conditions: Example 138, read-out: rhLp-PLA2 (pIC50) (converted)
Description: 1-O-hexadecyl-2-deoxy-2-thio-S-acetyl-sn-glyceryl-3-phosphorylcholine (2-thio-PAF) is a substrate for PAF-hydrolases (PAF-AH) commercially available from Cayman Chemical. Upon cleavage with PAF-AH, the free thiol is released at the sn-2 position and can then react with 7-diethylamino-3-(4′-maleimidylphenyl)-4-methylcoumarin (CPM) a thiol-reactive coumarin. This reaction (Michael addition) results in an increase in fluorescence. Inhibitors of Lp-PLA2 therefore prevent this cleavage and no fluorescent increase is observed.
The Thio-PAF assay was run as an unquenched 20 μL assay. The source plate containing the compounds to be tested was prepared by making 1:3 (by volume) serial dilution of the compounds within DMSO on 384-well microplate. Then, 5 μL of the compounds on compound source plate were transferred into 384 well Greiner 784076 (black) plates using STAR+ (Hamilton) liquid dispenser. 10 μL of recombinant human Lp-PLA2 enzyme (20 pM rhLp-PLA2 in assay buffer of 50 mM HEPES, pH 7.4, 150 mM NaCl, 1 mM CHAPS) was added to each well of the plate. […] The plates were read for fluorescence intensity at ex: 380 nm/em: 485 nm using Envision plate reader (Perkin Elmer). […]

[6] = target: T1, Lp-PLA2 in human plasma; assay: Lp-PLA2 human plasma assay, alternative Thio-PAF assay (3b); format: biochemical; conditions: pooled human plasma, Example 138, read-out: pIC50 in the Lp-PLA2 human plasma assay (converted)
Description: The human plasma assay utilizes the same thioester analog of PAF as described in (1b) “hr ThioPAF” assay. This assay may detect the activity of Lp-PLA2 in human plasma, as determined by specific inhibition by Lp-PLA2 inhibitors.
The thio-PAF assay was run as a quenched 20 μL assay. Compounds source plate was prepared by making 1:3 (by volume) serial dilution of the compounds into pure DMSO on 96-well microplate. 5 μL of compounds on compound source plate were transferred to 96-well Corning 3686 (black) low-volume plates by STAR+ (Hamilton) liquid dispenser. 10 μL pooled human plasma, which was previously aliquoted and frozen, was added. Plates were centrifuged for 30 sec at 1000 rpm. After 15 minutes preincubation at room temperature, 5 μL of substrate solution comprising 2 mM 2-thio-PAF [from ethanol stock], 52 μM CPM [from a DMSO stock] and 2.5 mM NEM (N-ethylmaleimide) [made fresh daily in DMSO] in assay buffer (50 mM HEPES, pH 7.4, 150 mM NaCl, 1 mM CHAPS) was added to 96-well Corning 3686 (black) low-volume plates. After 3 mins, reaction was quenched with 10 μL of 5% aqueous trifluoroacetic acid (TFA). Plates were centrifuged 30 sec at 1000 rpm, covered to protect from light and incubated for 10 min at room temperature. Plates were read at ex: 380 nm/em: 485 nm using Envision plate reader (Perkin Elmer). […]

Structure (SMILES): COc1ccc2c(c1)CCn1c-2cc(Oc2ccc(Oc3cccc(C(F)(F)F)c3)c(C#N)c2)nc1=O [5-((9-Methoxy-4-oxo-6,7-dihydro-4H-pyrimido[6,1-a]isoquinolin-2-yl)oxy)-2-(3-(trifluoromethyl)phenoxy)benzonitrile]
anti-inflammatory (M2) markers expression [1]: increase in M2 markers
proinflammatory (M1) markers expression [1]: decrease in M1 markers
plasma Lp-PLA2 activity ([2]; rat EAE plasma): decreased
plasma LysoPC levels ([2]; rat EAE plasma): decreased
clinical disease (EAE symptoms) ([2]; rats immunized with MBP, compound administered day 0 until day 22): reduction in clinical disease

Structure (SMILES): C[C@H]1Cn2c(cc(OCc3cccc(F)c3F)nc2=O)N1C [E111, (S)-7-((2,3-difluorobenzyl)oxy)-1,2-dimethyl-2,3-dihydroimidazo[1,2-c]pyrimidin-5(1H)-one]
IC50 [3]: > 10 µM

Second part, the compound after the results:

IC50 [3]: > 10 µM
Structure (SMILES): CC1(C)Cn2c(cc(OCc3ccc(F)c(F)c3)nc2=O)N1 [E120, 7-((3,4-difluorobenzyl)oxy)-2,2-dimethyl-2,3-dihydroimidazo[1,2-c]pyrimidin-5(1H)-one]

IC50 [4]: 0.251 nM
Structure (SMILES): C[C@H]1Cn2c(cc(OCc3cc(F)c(Oc4ccnc(C(F)(F)F)c4)c(F)c3)nc2=O)N1 [E131, (S)-7-((3,5-difluoro-4-((2-(trifluoromethyl)pyridin-4-yl)oxy)benzyl)oxy)-2-methyl-2,3-dihydroimidazo[1,2-c]pyrimidin-5(1H)-one]

IC50 [5]: 0.794 nM
IC50 [6]: ≤ 100 nM
Structure (SMILES): C[C@@H]1Cn2c(cc(OCc3cc(F)c(Oc4ccnc(C(F)(F)F)c4)c(F)c3)nc2=O)N1 [E138, (R)-7-((3,5-difluoro-4-((2-(trifluoromethyl)pyridin-4-yl)oxy)benzyl)oxy)-2-methyl-2,3-dihydroimidazo[1,2-c]pyrimidin-5(1H)-one]
